Experimental findings from PubChem BioAssay (NCI) are described below.

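Where inhibition never reached the appropriate level, the endpoint shown equals the highest concentration tested. Otherwise, values were interpolated linearly from a five-concentration, 48-hour dose response in 96-well plates. The concentration for full growth arrest is given as TGI.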

Some test systems named below: SK-MEL-2 melanoma; DU-145 prostate; HL-60(TB) leukemia; SF-268 CNS; SW-620 colon; UO-31 renal; SN12C renal; RPMI-8226 leukemia; NCI-H226 lung; UACC-62 melanoma.
Common to all, as to test: DTP human tumour cell line panel, 48 h

For orientation: TGI means the concentration at which net growth stops. Low readings indicate greater sensitivity of the cells, high ones lower sensitivity of the cells. On to `Cc1c2cccc-2ccc2c1[nH]c1ccccc12`, for which the TGI is 3.39 µM in the assay on SK-MEL-2 melanoma; 15.7 µM with DU-145 prostate; 9.38 µM in the assay on HL-60(TB) leukemia; 4 µM in the assay with SF-268 CNS; 7.68 µM with SW-620 colon; 3.14 µM in the assay on UO-31 renal. The concentration for total growth inhibition (TGI) with SN12C renal amounted to 7.01 µM; in the assay on RPMI-8226 leukemia, 8.28 µM; in the assay with NCI-H226 lung, 3.92 µM; with UACC-62 melanoma, 3.79 µM.
On to `O=[N+]([O-])/C=C/c1cn(CCCCCn2cc(/C=C/[N+](=O)[O-])c3ccccc32)c2ccccc12`, for which the total growth inhibition concentration (TGI) in the assay with SK-MEL-2 melanoma stood at 38.1 µM; in the assay with DU-145 prostate, 7.25 µM; in the assay with HL-60(TB) leukemia, 2.5 µM; with SF-268 CNS, 15.6 µM; in the assay with SW-620 colon, 2.57 µM; in the assay with UO-31 renal it was 9.78 µM. In addition, the concentration for total growth inhibition (TGI) is above 21.5 µM in the assay with SN12C renal, above 100 µM in the assay on RPMI-8226 leukemia, 4.36 µM with NCI-H226 lung and 31.5 µM with UACC-62 melanoma.
Consider `CC1=C2C(=O)c3ccccc3C(=O)[C@H]2C[C@@H](N2CCCCCC2=O)O1`, for which the TGI with SK-MEL-2 melanoma was found to be 40 µM; in the assay on DU-145 prostate, 32.3 µM; in the assay with HL-60(TB) leukemia, 46.3 µM; in the assay with SF-268 CNS, 36.3 µM; in the assay with SW-620 colon it was 33.1 µM; in the assay on UO-31 renal, 33.3 µM. Besides, the total growth inhibition concentration (TGI) in the assay with SN12C renal is 34.5 µM; in the assay on RPMI-8226 leukemia, 35.4 µM; in the assay with NCI-H226 lung, above 100 µM; in the assay on UACC-62 melanoma, 37.4 µM.
As to `CNc1ccc(Cl)cc1S(=O)(=O)c1ccccc1[N+](=O)[O-]`, the total growth inhibition concentration (TGI) with SK-MEL-2 melanoma, with DU-145 prostate, in the assay on HL-60(TB) leukemia, in the assay on SF-268 CNS, in the assay with SW-620 colon and in the assay with UO-31 renal was above 100 µM each time. Also, the TGI in the assay on SN12C renal, in the assay on RPMI-8226 leukemia, in the assay on NCI-H226 lung and with UACC-62 melanoma was above 100 µM throughout.
Turning to `CC(C)(C)OC(=O)N1CCc2c(n(C/C=C/c3ccccc3)[nH]c2=O)C1`, the total growth inhibition concentration (TGI) in the assay with SK-MEL-2 melanoma, with DU-145 prostate, in the assay with HL-60(TB) leukemia, in the assay with SF-268 CNS, in the assay with SW-620 colon and in the assay on UO-31 renal was above 100 µM throughout. The total growth inhibition concentration (TGI) in the assay with SN12C renal, in the assay with RPMI-8226 leukemia, in the assay with NCI-H226 lung and in the assay with UACC-62 melanoma was above 100 µM in each case.
As to `O=S(=O)(O)C1CCC(O)C2[N-]CCCC21.O=S(=O)(O)C1CCC(O)C2[N-]CCCC21.[Zn+2]` (stereo not drawn), the TGI in the assay with SK-MEL-2 melanoma is above 100 µM; with DU-145 prostate it was above 100 µM; in the assay on HL-60(TB) leukemia, 51 µM; with SF-268 CNS, above 100 µM; in the assay with SW-620 colon, above 100 µM; in the assay on UO-31 renal, above 100 µM. The total growth inhibition concentration (TGI) with SN12C renal, with RPMI-8226 leukemia, with NCI-H226 lung and in the assay with UACC-62 melanoma was above 100 µM in each case.
In the case of `NC(=O)C1=CC2C3C=CC2(O)C(=O)OC3O1` (stereo not drawn), the TGI in the assay with SK-MEL-2 melanoma was above 40.2 µM; in the assay with DU-145 prostate it was 14.2 µM; with HL-60(TB) leukemia it was 10.5 µM; with SF-268 CNS, 20.9 µM; with SW-620 colon, 28.6 µM; in the assay with UO-31 renal, 13.7 µM. Moreover, the total growth inhibition concentration (TGI) in the assay with SN12C renal is 20 µM; in the assay on RPMI-8226 leukemia, above 29.5 µM; with NCI-H226 lung it was 5.83 µM; in the assay with UACC-62 melanoma it was 7.74 µM.
For the compound `CCCCCCOP(=O)(OCCCCCC)OC(C(=O)OC)C(F)(F)F` (stereo not drawn), the TGI in the assay with SK-MEL-2 melanoma, with DU-145 prostate, in the assay with HL-60(TB) leukemia, with SF-268 CNS, with SW-620 colon and with UO-31 renal was above 100 µM each time. Besides, the TGI with SN12C renal, with RPMI-8226 leukemia, in the assay with NCI-H226 lung and with UACC-62 melanoma was above 100 µM each time.
With `COc1ccc(/C=C2\CCC(CNc3ccc(Br)cc3)C2=O)cc1` (stereo not drawn), the concentration for total growth inhibition (TGI) in the assay with DU-145 prostate, with HL-60(TB) leukemia, with SF-268 CNS, in the assay on SW-620 colon, in the assay with UO-31 renal and in the assay with SN12C renal was above 100 µM throughout. Further, the total growth inhibition concentration (TGI) with RPMI-8226 leukemia was 33.3 µM; in the assay on NCI-H226 lung it was above 100 µM; with UACC-62 melanoma, above 100 µM.
On to `CC(C)C1CC(CO)(CNc2cc(Cl)nc(N)n2)C1` (stereo not drawn), for which the TGI in the assay on SK-MEL-2 melanoma, in the assay on DU-145 prostate, with HL-60(TB) leukemia, in the assay with SF-268 CNS, in the assay with SW-620 colon and with UO-31 renal was above 100 µM in each case. Besides, the TGI with SN12C renal, with RPMI-8226 leukemia, in the assay with NCI-H226 lung and in the assay on UACC-62 melanoma was above 100 µM each time.
In the case of `COC1=CC(=O)C2=C(C1=O)[C@H]1CC[C@]3(C)[C@@H](OC(C)=O)CC[C@H]3[C@@H]1CC2`, the TGI in the assay with SK-MEL-2 melanoma was above 100 µM; with DU-145 prostate, above 100 µM; in the assay on HL-60(TB) leukemia it was 40.4 µM; in the assay on SF-268 CNS, above 100 µM; in the assay with SW-620 colon, above 100 µM; in the assay with UO-31 renal, above 100 µM. The concentration for total growth inhibition (TGI) in the assay on SN12C renal, in the assay on RPMI-8226 leukemia and in the assay with NCI-H226 lung was above 100 µM throughout.
In the case of `c1ccc([P+](c2ccccc2)(c2ccccc2)c2ccc([P+](c3ccccc3)(c3ccccc3)c3ccccc3)cc2)cc1`, the TGI in the assay with SK-MEL-2 melanoma, in the assay on DU-145 prostate, in the assay with HL-60(TB) leukemia, in the assay on SF-268 CNS, in the assay on SW-620 colon and in the assay with UO-31 renal was above 100 µM in each case. Further, the concentration for total growth inhibition (TGI) with SN12C renal, in the assay on RPMI-8226 leukemia, in the assay with NCI-H226 lung and in the assay on UACC-62 melanoma was above 100 µM throughout.
Turning to `COc1ccc(C=Nc2ccc(-c3nc4ccccc4[nH]3)cc2)cc1OC`, the total growth inhibition concentration (TGI) with SK-MEL-2 melanoma, in the assay on DU-145 prostate, in the assay on HL-60(TB) leukemia, in the assay on SF-268 CNS, in the assay with SW-620 colon and in the assay on UO-31 renal was above 100 µM throughout. The TGI with SN12C renal, in the assay on RPMI-8226 leukemia and in the assay with NCI-H226 lung was above 100 µM throughout.
Turning to `O=CNNC(=O)Nc1ccc(Cl)cc1`, the TGI with DU-145 prostate, in the assay with HL-60(TB) leukemia, with SF-268 CNS, in the assay with SW-620 colon, in the assay with UO-31 renal and in the assay on SN12C renal was above 100 µM throughout. Also, the concentration for total growth inhibition (TGI) with RPMI-8226 leukemia, in the assay on NCI-H226 lung and in the assay with UACC-62 melanoma was above 100 µM throughout.
`Cc1cn([C@H]2[C@@H](CO)C[C@H]2O)c(=O)[nH]c1=O`: the concentration for total growth inhibition (TGI) in the assay on SK-MEL-2 melanoma, with DU-145 prostate, in the assay with HL-60(TB) leukemia, in the assay on SF-268 CNS, in the assay on SW-620 colon and in the assay on UO-31 renal was above 100 µM throughout. Moreover, the TGI with SN12C renal, in the assay with RPMI-8226 leukemia and in the assay with NCI-H226 lung was above 100 µM throughout.
In the case of `COC(=O)c1ccc(/C=C2\CCc3ccccc3C2=O)cc1`, the TGI with DU-145 prostate, in the assay on HL-60(TB) leukemia, with SF-268 CNS, in the assay with SW-620 colon, with UO-31 renal and in the assay on SN12C renal was above 100 µM each time. Moreover, the TGI in the assay on RPMI-8226 leukemia, with NCI-H226 lung and with UACC-62 melanoma was above 100 µM in each case.
As to `Nc1ncc(/C=N/O)c(NCC2(CO)CC(CCc3ccccc3)C2)n1` (stereo not drawn), the total growth inhibition concentration (TGI) in the assay on SK-MEL-2 melanoma was 39.2 µM; with DU-145 prostate, 28.8 µM; with HL-60(TB) leukemia, 28 µM; in the assay on SF-268 CNS it was above 100 µM; in the assay with UO-31 renal it was 26.9 µM; with SN12C renal, 33 µM. Also, the results for the concentration for total growth inhibition (TGI) in the assay with RPMI-8226 leukemia, with NCI-H226 lung and in the assay with UACC-62 melanoma were 42.9 µM, 40.1 µM and 33.1 µM, respectively.
On to `[N-]=[N+]=C(C(=O)C(=[N+]=[N-])C(=O)c1ccccc1)C(=O)c1ccccc1`, for which the TGI in the assay on SK-MEL-2 melanoma, with DU-145 prostate, in the assay on HL-60(TB) leukemia, in the assay with SF-268 CNS, in the assay on SW-620 colon and in the assay with UO-31 renal was above 100 µM throughout. Besides, the TGI in the assay on SN12C renal, with RPMI-8226 leukemia and with UACC-62 melanoma was above 100 µM in each case.
With `COC(=O)c1c(OC)cc2cc3c(c(O)c2c1C)C(=O)C1(O)C(=O)C=C(OC)C(OC(=O)CC(C)N)=C1C3=O` (stereo not drawn), the TGI with SK-MEL-2 melanoma is above 100 µM; in the assay on DU-145 prostate, above 100 µM; in the assay with HL-60(TB) leukemia, 50.8 µM; in the assay with SF-268 CNS, above 100 µM; with SW-620 colon it was above 100 µM; in the assay on UO-31 renal, above 100 µM. Also, the results for the TGI with SN12C renal, in the assay on RPMI-8226 leukemia and with UACC-62 melanoma were above 100 µM, 39.7 µM and above 100 µM, respectively.
On to `C=C[C@@](C)(/C=C/c1ccc(O)cc1)CCC=C(C)C`, for which the TGI was determined as 37.3 µM in the assay on SK-MEL-2 melanoma; 26.1 µM in the assay with DU-145 prostate; 29.7 µM in the assay with HL-60(TB) leukemia; 34 µM in the assay on SW-620 colon; 32.4 µM in the assay on UO-31 renal; 35.3 µM in the assay on SN12C renal. The TGI in the assay on RPMI-8226 leukemia turned out to be 32.3 µM; with NCI-H226 lung, 35.4 µM.
As to `O=C(CSc1nc2ccc(I)cc2c(=O)n1Cc1ccccc1)NN1C(=O)CCC1=O`, the TGI was above 100 µM with SK-MEL-2 melanoma; above 100 µM in the assay with DU-145 prostate; 87.6 µM in the assay with HL-60(TB) leukemia; above 100 µM in the assay on SF-268 CNS; above 100 µM with SW-620 colon; above 100 µM in the assay on SN12C renal. The TGI in the assay on RPMI-8226 leukemia is above 100 µM; in the assay with NCI-H226 lung, 84.6 µM; in the assay with UACC-62 melanoma, above 100 µM.
